The source of these data is paper PMC10720437, “Non-therapeutic plasma levels in individuals utilizing curcumin supplements in daily life” (Frontiers in Nutrition, 2023).

One may read the IC50 as the concentration that inhibits the measured activity by half. As usually defined, the Cmax is the highest concentration seen after dosing.

Where “and” joins values, the source holds several entries; their conditions need not be identical. Equal entries are not always repeated.

The nature of data set [1]: Plasma levels of curcumin, metabolites and piperine by HPLC-MS/MS in participants using their own curcumin formulations. Format: in vivo, human. As for the experimental part: This study is an observational, open-label study investigating the plasma concentration of curcumin as used in daily life. Each participant was instructed to bring their own curcumin formulation on the day of visit. Participants were asked not to take their curcumin formulation in the morning on the day of visit. Blood was taken just before intake of the curcumin supplement (trough concentration) and 1.5 h after intake (expected peak concentration). Any food or beverage intake between these time points was registered while participants were not allowed to take any additional curcumin in between these two time points.
Blood was collected in heparinized tubes and protected against light by wrapping in aluminum foil directly after sampling. All samples were centrifuged (Rotina 380R from Hettich) for 10 min at 2754 RCF and 20°C and the obtained plasma was immediately stored, protected from light, at –80°C until analysis.
To determine the active plasma concentrations of curcumin, demethoxycurcumin, bisdemethoxycurcumin, and tetrahydrocurcumin it is important to highlight the difference between conjugated and unconjugated forms of these different compounds. A way to show this difference is to pretreat each sample with and without β-glucoronidase. In short, we used β-glucoronidase from Sigma-Aldrich (St. Louis, MO, USA), which contained ≥300,000 U/g β-glucoronidase and ≥10,000 U/g sulfatase, which hydrolyzes the hydrophilic glucuronic and sulfate acid group from conjugated curcumin (Figure 1) ([19]). The optimal pH for β-glucoronidase activity is 5.0 ([20]). Although our final mixture of sample plus β-glucoronidase solution has a slightly higher pH, we confirmed that after 1 h incubation at 37°C and 850 repetition per minute (rpm), a plateau was reached. No further conversion of conjugated curcumin into deconjugated curcumin occurred, indicating a complete reaction. Therefore, adding β-glucoronidase/sulfatase mixture results in an increase of unconjugated curcumin, demethoxycurcumin, bisdemethoxycurcumin, and tetrahydrocurcumin by displaying the sum of ‘previous’ conjugated and unconjugated curcuminoids and tetrahydrocurcumin.
Plasma samples were analyzed by our validated HPLC-MS/MS method ([21]). In short, on the day of analysis, samples were thawed and pretreated with and without β-glucoronidase. The samples treated with β-glucoronidase were incubated with 20 U/μL β-glucuronidase at 37°C and 850 revolutions per minute (RPM) for 1 h. Liquid–liquid extraction with Tert Butyl Methyl Ether (TBME) as organic phase was used to extract the compounds from the plasma. Curcumin, demethoxycurcumin, bisdemethoxycurcumin, tetrahydrocurcumin and piperine were quantified in a single analytical run. The HPLC-MS/MS system consisted of an Ultimate 3000 autosampler and pump, both of Dionex, connected to a degasser from LC Packings. The autosampler, with a 100 μL sample loop, was coupled to a Sciex API4000 mass spectrometer. After injection of 50 μL sample, separation of the analytes was performed with an Agilent column 2.1 × 100 mm packed with material of Zorbax Extend 3.5 μm C-18. The flowrate was […] and the dual gradient mobile phase consisted of A: ultra-purified H2O with 0.1% formic acid and B: MeOH 100%. The applied gradient profile started at 50:50 A:B and increased linear to 95% B in 3.0 min. During 6 min a 5:95 A:B level is continued, after which it returned in 0.2 min to 50:50. Afterwards the system was equilibrated during 6 min at the starting level. Throughout the liquid–liquid extraction and HPLC-MS/MS the potential influence of light was minimized by working in an dark environment with aluminum foil as much as possible. Each analytical run included a set of freshly prepared calibration samples containing all compounds in the validated range of 2 nM to 400 nM.

For the next data set, the system named is CYP3A. More on the design: method as in PMID 18480186. The following applies: cited from earlier work.
The conditions of data set [2]: cited from earlier work.
The test system of data set [3] is mouse model for pancreatic cancer. More on the design: method as in PMID 19528445. The following applies: cited from earlier work.
On the set-up of data set [4]: method as in PMID 9278892. The conditions noted are these: human blood incubated for 8 h at 37°C; cited from earlier work.
Details of data set [5]: method as in PMID 16545122. The conditions noted are these: oral dosages of up to 12 gram; cited from earlier work.
On the set-up of data set [6]: method as in PMID 9619120. The following applies: addition of 20 mg/kg piperine; rats; cited from earlier work.
[7] abbreviates: human, in vivo, Mean concentration.
The mark [8] stands for this setting: human, in vivo, Plasma level in individual participants.
The mark [9] stands for this setting: with addition of β-glucuronidase, 0 h (trough), human plasma.
[10] abbreviates: with addition of β-glucuronidase, 1.5 h (expected peak), human plasma.
[11] abbreviates: without addition of β-glucuronidase, 0 h (trough), human plasma.

For `O=C(/C=C/c1ccc(O)cc1)CC(=O)/C=C/c1ccc(O)cc1` [Bisdemethoxycurcumin, bisdemethoxycurcumin], in data set [1] (human, in vivo), the Plasma concentrations was 1.0 to 18.6 ng/mL and the “Plasma level in individual participants” value was 2.1 ng/mL. Besides, in data set [1] (human, in vivo, 0 h), the Concentration range was 0.7 to 2.7 ng/mL and the Mean concentration came out at 1.6 ng/mL. Also, in data set [1] (human, in vivo, 1.5 h), the Concentration range lay within 0.7 to 60.4 ng/mL and the Mean concentration stood at 6.1 ng/mL. The concentration at 0 h in data set [1] (setting [7]) was determined as 2.1 ng/mL. For the same compound, the concentration at 1.5 h in data set [1] (setting [8]) is below 0.62 ng/mL.
As for `COc1cc(/C=C/C(O)=C/C(=O)/C=C/c2ccc(O)cc2)ccc1O` [Demethoxycurcumin, demethoxycurcumin], in data set [1] (human, in vivo), the Plasma concentrations was 1.0 to 18.6 ng/mL and the “Plasma level in individual participants” value is below 0.68 ng/mL. In data set [1] (human, in vivo, 0 h), the Concentration range is 1.4 to 8.6 ng/mL and the Mean concentration is on record as 3.5 ng/mL. In data set [1] (human, in vivo, 1.5 h), the Concentration range fell in the range of 0.9 to 73.1 ng/mL and the Mean concentration was 9.4 ng/mL. Besides, the concentration at 1.5 h in data set [1] (setting [8]) was below 0.68 ng/mL.
`O=C(/C=C/C=C/c1ccc2c(c1)OCO2)N1CCCCC1` [Piperine, piperine]: in data set [1] (human, in vivo), the “Fold lower than piperine plasma concentrations in literature that affect curcumin bioavailability” value is recorded as 10-60 fold; the “Trough and peak level concentrations” value lay in the range of 1.0 to 1096 ng/mL. Further, in data set [1] (in vivo), the Detectability in plasma result is on record as “detectable in all participants”. Further, in the data set on CYP3A, the IC50 is 5.5 ± 0.7 µM.
Consider `COc1cc(CCC(=O)CC(=O)CCc2ccc(O)c(OC)c2)ccc1O` [Tetrahydrocurcumin, tetrahydrocurcumin], for which the Plasma concentrations in data set [1] (human, in vivo) is 1.0 to 18.6 ng/mL. Besides, the “Plasma level in individual participants” value was below 0.74 ng/mL in data set [1] (human, in vivo) and 20.9 ng/mL in data set [1] (human, in vivo, 1.5 h). Also, in data set [1] (human, in vivo, 0 h), the Concentration range fell in the range of 0.8 to 81.2 ng/mL. Also, the Mean concentration in data set [1] (human, in vivo, 0 h) stood at 14.6 ng/mL; in data set [1] (human, in vivo, 1.5 h), 21.6 ng/mL. Besides, the concentration at 1.5 h is 18.6 ng/mL in data set [1] (setting [7]) and 16.4 ng/mL in data set [1] (setting [8]).
For curcumin, the “Fold below a plasma concentration expected to have a beneficial health effect” value in data set [1] (curcumin plasma level after adding β-glucuronidase (25.4 ng/mL)) is on record as 1000 fold. Besides, in data set [1] (one of three participants using curcumin lipid formulations, dosage 800 mg), the Cmax is 355 nM. The “Fold lower than the concentrations assessed in vitro” value in data set [1] (unconjugated free curcumin in plasma) was above 1000 fold. Also, the “Detectable levels in # persons” value is 27 in data set [1] (setting [9]); 42 in data set [1] (setting [10]); 1 in data set [1] (setting [11]); 2 in data set [1] (without addition of β-glucuronidase, 1.5 h after intake (expected peak), human plasma). Further, the Mean concentration in data set [1] (setting [9]) amounted to 14.3 ng/mL; in data set [1] (setting [10]) it was 25.4 ng/mL; in data set [1] (setting [11]), 10.1 ng/mL; in data set [1] (without addition of β-glucuronidase, 1.5 h (expected peak), human plasma), 1.0 ng/mL. Also, the “Participants in whom curcumin after hydrolysis could not be detected (below LLOQ)” value in data set [1] (with β-glucuronidase, 1.5 h after dosing) was 5. Also, the “Plasma level in individual participants” value was 0.9 ng/mL and 1.1 ng/mL in data set [1] (without β-glucuronidase, expected peak level, 1.5 h after intake); 10.1 ng/mL in data set [1] (without β-glucuronidase, trough level). Also, in data set [2] (oral lipid formulations, β-glucuronidase added prior to analysis), the Curcumin concentrations entry was “up to 1189.1 ± 518.8 ng/mL”. Besides, the “Claimed plasma concentration relative to the concentration of unconjugated curcumin” value in data set [2] (β-glucuronidase added to plasma prior to analysis) is listed as “up to 185 x”. For the same compound, the Tumor growth result in data set [3] is “reduced the tumor growth”. Moreover, the “Decrease of chemical t1/2” value in data set [4] is 50%. The “Levels of curcumin in the systemic circulation” value in data set [5] is “no detectable levels”. Also, in data set [6], the “Increase of bioavailability of curcumin” value is on record as 154%.
